System: Leiomyosarcoma Tumorzell-Linie SK-UT-1B
Assay: Test 2: inhibition of proliferation of cultured human tumour cells (14C-thymidine incorporation)
Assay type: cell-based
Conditions: Skut1B, SK-UT-1B cells, 48 h incubation with compound, then a further 24 h with 14C-thymidine, measured in duplicate, read-out: Hemmung der SKUT-1B-Proliferation IC50
Text: Inhibierung der Profileration von kultivierten humanen Tumorzellen
Zellen der Leiomyosarcoma Tumorzell-Linie SK-UT-1B (erhalten von der American Type Culture Collection (ATCC)) wurden in Minimum Essential Medium mit nicht essentiellen Aminosäuren (Gibco), ergänzt mit Natrium-Pyruvat (1 mMol), Glutamin (2 mMol) und 10% fötalem Rinderserum (Gibco) kultiviert und in der log-Wachstumsphase geerntet. Anschließend wurden die SK-UT-1B-Zellen in Cytostar® multi-well Platten (Amersham) mit einer Dichte von 4000 cells per well eingebracht und über Nacht in einem Inkubator inkubiert. Verschiedene Konzentrationen der Verbindungen (gelöst in DMSO; Endkonzentration: <1%) wurden zu den Zellen zugegeben. Nach 48 Stunden Inkubation wurde ^14C-Thymidin (Amersham) zu jedem well zugesetzt, und es wurde weitere 24 Stunden inkubiert. Die Menge an ^14C-Thymidin, die in Gegenwart des Inhibitors in die Tumorzellen eingebaut wurde und die die Zahl der Zellen in der S-Phase repräsentiert, wurde in einem Wallace 1450 Microbeta Flüssig Scintillations Zähler gemessen. IC50-Werte für die Inhibierung der Proliferation (= Inhibierung von eingebautem ^14C-Thymidin) wurden - unter Korrektur für die Hintergrundstrahlung - berechnet. Alle Messungen wurden zweifach ausgeführt.

SMILES | IC50
CCCCNCc1ccc(N/C(=C2\C(=O)Nc3ccc(C(N)=O)cc32)c2ccccc2)cc1 [4(120), 3-2-[1-(4-(N-Butyl-aminomethyl)-phenylamino)-1-phenylmethylen]-5-amido-2-indolinon-trifluoracetat] | 0.04 µM
CCN(CC)CCCOc1ccc(N/C(=C2\C(=O)Nc3ccc(C(N)=O)cc32)c2ccccc2)cc1 [4(129), 3-Z-[1-(4-(3-Diethylamino-propoxy)-phenylamino)-1-phenylmethylen] -5-amido-2-indolinon-trifluoracetat] | 0.04 µM
NC(=O)c1ccc2c(c1)/C(=C(/Nc1ccc(CN3CCCCC3)cc1)c1ccccc1)C(=O)N2 [Beispiel 4(53), 3-Z-[1-(4-Piperidinomethyl-phenylamino)-1-phenyl-methylen] -5-amido-2-indolinon-trifluoracetat] | 0.01 µM
NC(=O)c1ccc2c(c1)/C(=C(/Nc1ccc(CN3CCCCCC3)cc1)c1ccccc1)C(=O)N2 [Beispiel 4(54), 3-Z-[1-(4-Hexamethyleniminomethyl-phenylamino)-1-phenylmethylen]-5-amido-2-indolinon-trifluoracetat] | 0.03 µM
NC(=O)c1ccc2c(c1)/C(=C(/Nc1ccc(CN3CCC(Cc4ccccc4)CC3)cc1)c1ccccc1)C(=O)N2 [Beispiel 4(60), 3-Z-[1-(4-(4-Benzyl-piperidinomethyl)-phenylamino)-1-phenyl-methylen]-5-amido-2-indolinon] | 0.03 µM
CN(Cc1ccccc1)Cc1ccc(N/C(=C2\C(=O)Nc3ccc(C(N)=O)cc32)c2ccccc2)cc1 [Beispiel 4(94), 3-Z-[1-(4-(N-Methyl-N-benzyl-amino-methyl)-phenylamino)-1-phenyl-methylen]-5-amido-2-indolinon-trifluoracetat] | 0.03 µM

Continued, values first:

IC50 | SMILES
0.04 µM | NC(=O)c1ccc2c(c1)/C(=C(/Nc1ccc(CNCc3ccccc3)cc1)c1ccccc1)C(=O)N2 [4(122), 3-Z-[1-(4-(N-(Phenyl-methyl)-aminomethyl)-phenylamino)-1-phenyl-methylen]-5-amido-2-indolinon-trifluoracetat]
0.17 µM | NC(=O)c1ccc2c(c1)/C(=C(/Nc1ccccc1)c1ccccc1)C(=O)N2 [Beispiel 4(2), 3-Z-(1-Phenylamino-1-phenyl-methylen)-5-amido-2-indolinon]
0.18 µM | NC(=O)c1ccc2c(c1)/C(=C(/Nc1ccc(Br)cc1)c1ccccc1)C(=O)N2 [Beispiel 4(14), 3-Z-[1-(4-Brom-phenylamino)-1-phenyl-methylen]-5-amido-2-indolinon]
0.05 µM | CN(C)Cc1ccc(N/C(=C2\C(=O)Nc3ccc(C(N)=O)cc32)c2ccccc2)cc1 [Beispiel 4(62), 3-Z-[1-(4-Dimethylaminomethyl-phenylamino)-1-phenyl-methylen]-5-amido-2-indolinon]
